According to PubChem BioAssay (NCI):
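Method: 48-hour compound exposure of cells in 96-well plates, five concentrations, linear interpolation of endpoints. TGI is the concentration that stops growth completely.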

How the values were obtained:
Assay in all cases: NCI-60 cell line screen, 48 h
[1] = system: TK-10 renal
[2] = system: HCC-2998 colon
[3] = system: SN12C renal
[4] = system: LOX IMVI melanoma
[5] = system: NCI-H522 lung
[6] = system: T-47D breast
[7] = system: NCI/ADR-RES ovarian
[8] = system: 786-0 renal
[9] = system: EKVX NSCLC
[10] = system: MOLT-4 leukemia
[11] = system: CAKI-1 renal
[12] = system: OVCAR-8 ovarian
[13] = system: BT-549 breast
[14] = system: SF-295 CNS
[15] = system: RXF 393 renal
[16] = system: OVCAR-5 ovarian
[17] = system: SF-539 CNS
[18] = system: CCRF-CEM leukemia
[19] = system: PC-3 prostate
[20] = system: M14 melanoma
[21] = system: OVCAR-4 ovarian
[22] = system: ACHN renal
[23] = system: A498 renal
[24] = system: SK-MEL-2 melanoma
[25] = system: SW-620 colon
[26] = system: UACC-257 melanoma
[27] = system: U251 CNS
[28] = system: HCT-15 colon
[29] = system: NCI-H226 lung
[30] = system: SF-268 CNS
[31] = system: HL-60(TB) leukemia
[32] = system: OVCAR-3 ovarian
[33] = system: KM12 colon
[34] = system: MDA-MB-231 breast
[35] = system: RPMI-8226 leukemia
[36] = system: NCI-H460 lung
[37] = system: K-562 leukemia
[38] = system: UACC-62 melanoma
[39] = system: HOP-92 NSCLC
[40] = system: SR leukemia
[41] = system: HCT-116 colon
[42] = system: SNB-75 CNS
[43] = system: MCF7 breast
[44] = system: A549 NSCLC
[45] = system: HS 578T breast
[46] = system: MDA-MB-435
[47] = system: SNB-19 CNS
[48] = system: HT29 colon
[49] = system: COLO 205 colon
[50] = system: SK-MEL-28 melanoma
[51] = system: HOP-62 NSCLC
[52] = system: NCI-H23 lung
[53] = system: UO-31 renal
[54] = system: DU-145 prostate
[55] = system: SK-MEL-5 melanoma
[56] = system: IGROV1 ovarian
[57] = system: MDA-N
[58] = system: SK-OV-3 ovarian
[59] = system: MALME-3M melanoma

Cc1ccccc1-n1c(=O)nc2n(-c3ccc(C(C)(C)C)cc3)c3ccccc3cc-2c1=O
TGI [1]: > 100 µM
TGI [2]: 32.4 µM
TGI [3]: 38.1 µM
TGI [4]: 30.3 µM
TGI [5]: 47.6 µM
TGI [6]: > 100 µM
TGI [7]: 40.6 µM
TGI [8]: 69.9 µM
TGI [9]: 64.6 µM
TGI [10]: 55.1 µM
TGI [11]: 71.4 µM
TGI [12]: 42.9 µM
TGI [13]: 69.6 µM
TGI [14]: 53.1 µM
TGI [15]: 39 µM
TGI [16]: 63.6 µM
TGI [17]: 36 µM
TGI [18]: 50.5 µM
TGI [19]: 45.6 µM
TGI [20]: 32.4 µM
TGI [21]: 92.5 µM
TGI [22]: > 100 µM
TGI [23]: 86.6 µM
TGI [24]: 34.8 µM
TGI [25]: 33.5 µM
TGI [26]: 37.1 µM
TGI [27]: 28.3 µM
TGI [28]: 32.8 µM
TGI [29]: 38.2 µM
TGI [30]: 83.2 µM
TGI [31]: 43.2 µM
TGI [32]: 40.9 µM
TGI [33]: 29.8 µM
TGI [34]: 42.9 µM
TGI [35]: 52.9 µM
TGI [36]: 28.7 µM
TGI [37]: > 100 µM
TGI [38]: 41 µM
TGI [39]: 50.1 µM
TGI [40]: 59.7 µM
TGI [41]: 28.8 µM
TGI [42]: 66.3 µM
TGI [43]: 59.9 µM
TGI [44]: > 100 µM
TGI [45]: 79.7 µM
TGI [46]: 27.9 µM
TGI [47]: 54.4 µM
TGI [48]: 34.6 µM
TGI [49]: 41.6 µM
TGI [50]: 28.7 µM
TGI [51]: 39.7 µM
TGI [52]: 58.2 µM
TGI [53]: 95.1 µM
TGI [54]: 77.1 µM
TGI [55]: 28.5 µM
TGI [56]: 64.5 µM
TGI [57]: 82.4 µM

COc1ccc(/C=N/n2c(Cc3ccccc3)n[nH]c2=O)c(OC)c1
TGI [1]: 84.1 µM
TGI [2]: > 100 µM
TGI [3]: > 100 µM
TGI [4]: > 85.3 µM
TGI [5]: > 100 µM
TGI [6]: > 100 µM
TGI [7]: 86.5 µM
TGI [8]: > 69 µM
TGI [9]: 99.4 µM
TGI [10]: > 100 µM
TGI [11]: > 100 µM
TGI [12]: > 59.6 µM
TGI [13]: > 49 µM
TGI [14]: > 61.4 µM
TGI [15]: > 63.2 µM
TGI [16]: > 100 µM
TGI [17]: > 100 µM
TGI [18]: > 100 µM
TGI [19]: > 100 µM
TGI [20]: > 100 µM
TGI [21]: > 100 µM
TGI [22]: > 56.5 µM
TGI [58]: > 60.7 µM
TGI [23]: > 66 µM
TGI [24]: > 100 µM
TGI [25]: > 100 µM
TGI [26]: > 100 µM
TGI [27]: > 65.1 µM
TGI [28]: > 100 µM
TGI [29]: > 80.9 µM
TGI [30]: 47 µM
TGI [32]: > 100 µM
TGI [33]: > 100 µM
TGI [34]: > 62.7 µM
TGI [35]: > 100 µM
TGI [36]: > 92.5 µM
TGI [37]: > 100 µM
TGI [38]: > 100 µM
TGI [39]: > 75 µM
TGI [59]: > 100 µM
TGI [40]: > 100 µM
TGI [41]: > 55.1 µM
TGI [42]: 28.6 µM
TGI [43]: > 100 µM
TGI [44]: > 58.4 µM
TGI [45]: 37.5 µM
TGI [46]: > 100 µM
TGI [47]: > 77.5 µM
TGI [48]: > 64.5 µM
TGI [49]: > 31.6 µM
TGI [50]: > 100 µM
TGI [51]: > 59.8 µM
TGI [52]: > 65.4 µM
TGI [53]: > 63.1 µM
TGI [54]: > 100 µM
TGI [55]: > 100 µM
TGI [56]: > 100 µM
TGI [57]: > 100 µM
